According to patent publication US10724055B2, “Methods for sustaining the viability of microorganisms during a cessation of syngas flow and processes for storage and reactivation of microorganisms” (Synata Bio, Inc., priority 2015, dated 2020):

Experiments:
Assay in all cases: Sustaining microorganisms with formate moiety during cessation of syngas feed, recovery on syngas resumption
Type in all cases: cell-based
[1] = tested on: Clostridium autoethanogenum
Experimental: (§1) A stirred, 10 liter, continuous fermenter is used under anaerobic bioconversion conditions with a feed gas comprising about 63.3 volume percent hydrogen; 20.5 volume percent carbon monoxide; 6.8 volume percent carbon dioxide; 8.2 volume percent methane and 1.2 volume percent nitrogen. During steady state operation, the gas feed is supplied at about 280 to 290 […] (measured at atmospheric pressure and 25° C.) and a media feed is provided at about 200 milliliters per hour. The media feed is an aqueous solution containing:
(§2) An aqueous solution of about 60 millimoles of sodium metabisulfite is separately added at a rate of 0.6 milliliters per hour. The fermenter is maintained at about 37° C. at a pH of about 5.0. The stirring rate is approximately 600 revolutions per minute.
In each example, the fermentation, using the microorganism specified in Table 1, is operated to achieve stable, steady-state conditions. The flow of syngas is then stopped. […] After a predetermined period, the addition of formate moiety is stopped, the nitrogen sweep gas is stopped and the syngas is resumed at a rate that matches the uptake capacity of the microbial population. The stirring is increased to about 600 rpm, and the flow rates of the media feed and metabisulfite feed are resumed to the levels existing prior to the cessation of the syngas feed.

Clostridium radsdalei = conditions: Example 3; formate feed 5 mole % of electrons; outage 12 hrs; no media or sulfur feed
Experimental: as §1, §2
(§3) In each example, the fermentation, using the microorganism specified in Table 1, is operated to achieve stable, steady-state conditions. The flow of syngas is then stopped. At the time of stoppage of syngas feed, the fermenter is operated in batch mode (no aqueous stream draw from the fermenter), nitrogen gas at about 15 milliliters per minute (atmospheric pressure and 25° C.) is fed to sweep the head space of the fermenter, and the stirring rate is reduced to about 100 rpm. After a predetermined period, the addition of formate moiety is stopped, the nitrogen sweep gas is stopped and the syngas is resumed at a rate that matches the uptake capacity of the microbial population. The stirring is increased to about 600 rpm, and the flow rates of the media feed and metabisulfite feed are resumed to the levels existing prior to the cessation of the syngas feed.

[2] = tested on: Clostridium autoethanogenum; conditions: Example 2; formate feed 3.5 mole % of electrons; outage 6 hrs; media feed 10%; Na2S 20 mg/hr; argon sweep gas
Clostridium coskatii = conditions: no media or sulfur feed
Experimental: as §1, §2, §3

[3] = Example 1, formate feed 3.5 mole % of electrons prior to outage, syngas outage 6 hrs, media feed 10%, Na2S 20 mg/hr, nitrogen sweep
[4] = Example 8, formate feed 3.5 mole % of electrons, outage 6 hrs, no media or sulfur feed
[5] = Example 9, formate feed 10 mole % of electrons, outage 6 hrs, no media or sulfur feed
[6] = Example 10, formate feed 10 mole % of electrons, outage 24 hrs, no media or sulfur feed
[7] = Example 4, formate feed 3.5 mole % of electrons, outage 6 hrs
[8] = Example 5, formate feed 3.5 mole % of electrons, outage 24 hrs
[9] = Example 6, formate feed 15 mole % of electrons, outage 24 hrs

O=C[O-].[Na+] [Sodium salt]
Yes: CO uptake recovery [1, 3] | H2 uptake recovery [1, 3] | H2 uptake recovery ([1]; Example 2, formate feed 3.5 mole % of electrons, outage 6 hrs, media feed 10%, Na2S 20 mg/hr, argon sweep gas) | CO uptake recovery [1, 4] | H2 uptake recovery [1, 4] | CO uptake recovery (Clostridium radsdalei) | H2 uptake recovery (Clostridium radsdalei) | CO uptake recovery [2]

O=CO [Formic acid]
Yes: CO uptake recovery [1, 5] | H2 uptake recovery [1, 5] | CO uptake recovery [1, 6] | H2 uptake recovery [1, 6]

N.O=CO [NH4^+ salt]
Yes: CO uptake recovery (Clostridium coskatii; [7]) | H2 uptake recovery (Clostridium coskatii; [7]) | CO uptake recovery (Clostridium coskatii; [8]) | H2 uptake recovery (Clostridium coskatii; [8]) | CO uptake recovery (Clostridium coskatii; [9]) | H2 uptake recovery (Clostridium coskatii; [9])
